Assay results reported in patent US11046716B2, “Beta-lactamase inhibitors” (priority 2015, dated 2021).

Assays:
SHV-5 = molecular target: T1, SHV-5 (Klebsiella pneumoniae, UniProt P0A3M1); experiment: β-lactamase enzyme inhibition assay, SHV-5 (cefotaxime substrate); assay type: biochemical
T1 construct: made in house; host or cells: E. coli BL21(DE3)
Outline: (§1)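 Native untagged enzymes expressed in E. coli BL21(DE3), purified by cation exchange and gel filtration. Inhibitor preincubated with enzyme 15 min at 37 °C; hydrolysis followed by absorbance: imipenem at 300 nm for KPC-2, cefotaxime at 260 nm for SHV-5. IC50 as concentration halving initial hydrolysis rate versus inhibitor-free wells.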

KPC-2 = molecular target: T2, KPC-2 (Klebsiella pneumoniae, UniProt Q9F663); experiment: β-lactamase enzyme inhibition assay, KPC-2 (imipenem substrate); assay type: biochemical; settings: Class A; imipenem substrate, 300 nm; read-out: KPC-2
T2 construct: made in house; host or cells: E. coli BL21(DE3)
T2 sequence (Q9F663 25-293, looked up): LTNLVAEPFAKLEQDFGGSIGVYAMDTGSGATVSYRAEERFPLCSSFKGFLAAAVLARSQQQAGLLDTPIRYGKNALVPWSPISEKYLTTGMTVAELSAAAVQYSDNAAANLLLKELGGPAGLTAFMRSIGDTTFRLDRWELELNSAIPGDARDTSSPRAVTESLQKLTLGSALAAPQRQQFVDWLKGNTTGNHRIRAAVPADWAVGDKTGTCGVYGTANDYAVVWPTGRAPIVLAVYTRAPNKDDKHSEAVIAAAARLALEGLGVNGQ
Outline: as §1

VIM-2 = molecular target: T3, VIM-2 (Escherichia coli, UniProt Q5U7L7); experiment: β-lactamase enzyme inhibition assay, VIM-2 (nitrocefin substrate); assay type: biochemical; settings: Class B; nitrocefin substrate, 486 nm; read-out: VIM-2
T3 construct: made in house; host or cells: E. coli BL21(DE3)
Outline: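 Nitrocefin hydrolysis, read at 486 nm over 10 min, served as the measure of VIM-2 activity. The enzyme had been incubated with compound for 15 min at 37 °C before 100 μM substrate was added, and IC50 values were fitted from percent inhibition of the initial rate.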

AmpC = molecular target: T4, AmpC (Enterobacter cloacae, UniProt P05364); experiment: β-lactamase enzyme inhibition assay, p99 AmpC (nitrocefin substrate); assay type: biochemical
T4 construct: made in house; host or cells: E. coli BL21(DE3)
T4 sequence (P05364 21-381): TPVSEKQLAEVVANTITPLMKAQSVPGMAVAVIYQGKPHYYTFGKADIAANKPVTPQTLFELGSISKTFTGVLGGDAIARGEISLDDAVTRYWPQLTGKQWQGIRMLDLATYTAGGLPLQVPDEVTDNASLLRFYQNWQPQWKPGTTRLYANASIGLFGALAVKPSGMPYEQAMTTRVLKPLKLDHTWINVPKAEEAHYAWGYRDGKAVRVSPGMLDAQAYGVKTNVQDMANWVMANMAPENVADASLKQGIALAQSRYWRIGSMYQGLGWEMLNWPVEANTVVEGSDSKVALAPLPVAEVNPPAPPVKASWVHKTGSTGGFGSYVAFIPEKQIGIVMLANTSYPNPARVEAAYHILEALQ
Outline: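 Native untagged enzymes expressed in E. coli BL21(DE3), purified by cation exchange and gel filtration. Inhibitor preincubated with enzyme 15 min at 37 °C; hydrolysis followed by absorbance. IC50 as concentration halving initial hydrolysis rate versus inhibitor-free wells.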

OXA-48 = OXA-48 (UniProt Q6XEC0); experiment: β-lactamase enzyme inhibition assay, Class D oxacillinase; assay type: biochemical; settings: read-out: OXA-48
[1] = test system: E. coli expressing the Class A Extended Spectrum Beta-Lactamase (ESBL) CTX-M-15; experiment: Broth microdilution MIC assay with ceftazidime, E. coli CTX-M-15; assay type: cell-based; settings: Fixed CAZ (ceftazidime) 4 μg/mL; E. coli ESBL4 CTX-M-15
Outline: (§2)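 Visual MIC readout of the test compound after 16-20 hours at 37° C, measured in the presence of a constant 4 μg/ml β-lactam. Compound concentrations spanned 16 to 0.125 μg/mL in 2-fold steps in cation-adjusted Mueller Hinton broth.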

[2] = test system: E. cloacae expressing the Class C P99; experiment: Broth microdilution MIC assay with ceftazidime, E. cloacae P99; assay type: cell-based; settings: Fixed CAZ (ceftazidime) 4 μg/mL; E. cl. 144200 p99 AmpC
Outline: as §2

[3] = test system: K. pneumoniae expressing the Class A carbapenemase KPC-2; experiment: Broth microdilution MIC assay with meropenem, K. pneumoniae KPC-2; assay type: cell-based; settings: Fixed Mero (meropenem) 4 μg/mL; K. p. 156319 KPC-3
Outline: as §2

[4] = test system: P. aeruginosa expressing the Class B carbapenemase VIM-2; experiment: Broth microdilution MIC assay with meropenem, P. aeruginosa VIM-2; assay type: cell-based; settings: Fixed Mero (meropenem) 4 μg/mL; P. aerug. 2775 VIM-2
Outline: as §2

[5] = test system: K. pneumoniae expressing the class A carbapenemase KPC-2 and the class B carbapenemase VIM-4; experiment: Broth microdilution MIC assay with meropenem, K. pneumoniae KPC-2 and VIM-4; assay type: cell-based; settings: Fixed Mero (meropenem) 4 μg/mL; K. p. A-1797 KPC-2 VIM-4
Outline: as §2

[6] = test system: K. pneumoniae producing the Class D carbapenemase OXA-48; experiment: Broth microdilution MIC assay with meropenem, K. pneumoniae OXA-48; assay type: cell-based; settings: Fixed Mero (meropenem) 4 μg/mL; K. p. 11978 OXA-48
Outline: as §2

T1 sequence (P0A3M1 22-286): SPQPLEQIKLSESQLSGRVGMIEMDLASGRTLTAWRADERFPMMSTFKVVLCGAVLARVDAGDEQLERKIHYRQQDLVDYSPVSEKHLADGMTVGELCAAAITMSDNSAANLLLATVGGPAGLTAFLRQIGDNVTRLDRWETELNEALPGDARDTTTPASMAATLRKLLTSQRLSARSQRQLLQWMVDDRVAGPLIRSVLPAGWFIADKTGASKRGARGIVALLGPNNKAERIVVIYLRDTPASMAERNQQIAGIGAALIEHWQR

Row | Structure (SMILES) | IC50 (SHV-5) [nM] | IC50 (KPC-2) [nM] | IC50 (VIM-2) [nM] | IC50 (AmpC) [nM] | IC50 (OXA-48) [nM] | MIC (μg/mL) of Exemplary Compounds in presence of fixed β-lactams: E. coli ESBL4 CTX-M-15 [1] | MIC (μg/mL) of Exemplary Compounds in presence of fixed β-lactams: E. cl. 144200 p99 AmpC [2] | MIC (μg/mL) of Exemplary Compounds in presence of fixed β-lactams: K. p. 156319 KPC-3 [3] | MIC (μg/mL) of Exemplary Compounds in presence of fixed β-lactams: P. aerug. 2775 VIM-2 [4] | MIC (μg/mL) of Exemplary Compounds in presence of fixed β-lactams: K. p. A-1797 KPC-2 VIM-4 [5] | MIC (μg/mL) of Exemplary Compounds in presence of fixed β-lactams: K. p. 11978 OXA-48 [6]
1 | CN(C)CCn1nnnc1CC(=O)N[C@H]1Cc2cccc(C(=O)O)c2OB1O [Example 49, (R)-3-(2-(1-(2-(dimethylamino)ethyl)-1H-tetrazol-5-yl)acetamido)-2-hydroxy-3,4-dihydro-2H-benzo[e][1,2]oxaborinine-8-carboxylic acid] | < 100 | < 100 | 100 to 1000 | < 100 | 100 to 1000 | C (C represents an MIC of <1 μg/mL) | C (C represents an MIC of <1 μg/mL) | C (C represents an MIC of <1 μg/mL) | B (B represents an MIC between 1 and 16 μg/mL inclusive) | B (B represents an MIC between 1 and 16 μg/mL inclusive) | B (B represents an MIC between 1 and 16 μg/mL inclusive)
2 | NC1CCN(C(=O)c2cn(CC(=O)N[C@H]3Cc4cccc(C(=O)O)c4OB3O)nn2)CC1 [Example 82, (R)-3-(2-(4-(4-aminopiperidine-1-carbonyl)-1H-1,2,3-triazol-1-yl)acetamido)-2-hydroxy-3,4-dihydro-2H-benzo[e][1,2]oxaborinine-8-carboxylic acid] | < 100 | < 100 | 100 to 1000 | < 100 | 100 to 1000 | C (C represents an MIC of <1 μg/mL) | C (C represents an MIC of <1 μg/mL) | C (C represents an MIC of <1 μg/mL) | C (C represents an MIC of <1 μg/mL) | B (B represents an MIC between 1 and 16 μg/mL inclusive) | C (C represents an MIC of <1 μg/mL)
3 | O=C(Cn1cc(-c2cccs2)nn1)N[C@H]1Cc2cccc(C(=O)O)c2OB1O [Example 28, (R)-2-hydroxy-3-(2-(4-(thiophen-2-yl)-1H-1,2,3-triazol-1-yl)acetamido)-3,4-dihydro-2H-benzo[e][1,2]oxaborinine-8-carboxylic acid] | < 100 | < 100 | 100 to 1000 | < 100 | 100 to 1000 | C (C represents an MIC of <1 μg/mL) | C (C represents an MIC of <1 μg/mL) | B (B represents an MIC between 1 and 16 μg/mL inclusive) | B (B represents an MIC between 1 and 16 μg/mL inclusive) | A (A represents an MIC>16 μg/mL) | B (B represents an MIC between 1 and 16 μg/mL inclusive)
4 | NCc1nnc(CC(=O)N[C@H]2Cc3cccc(C(=O)O)c3OB2O)s1 [Example 67, (R)-3-(2-(5-(aminomethyl)-1,3,4-thiadiazol-2-yl)acetamido)-2-hydroxy-3,4-dihydro-2H-benzo[e][1,2]oxaborinine-8-carboxylic acid] | < 100 | < 100 | 100 to 1000 | < 100 | 100 to 1000 | C (C represents an MIC of <1 μg/mL) | C (C represents an MIC of <1 μg/mL) | B (B represents an MIC between 1 and 16 μg/mL inclusive) | C (C represents an MIC of <1 μg/mL) | B (B represents an MIC between 1 and 16 μg/mL inclusive) | B (B represents an MIC between 1 and 16 μg/mL inclusive)
